Data taken from US10227331B2 (priority 2015, dated 2019).

How the values were obtained:
[1] = test system: P. aeruginosa expressing IMP-1, efflux+ (MB9798); type: cell-based, Pseudomonas aeruginosa; details: for P. aeruginosa expressing IMP-1, efflux+ (MB9798) MITC95: imipenem at 2 μg/mL, in the presence of a class A, C, D serine β-lactamase inhibitor closely related to relebactam; for Efflux ratio: ratio MITC95 PA_9798/MITC95 PA_9799
Description: (§1) The strain background is Pseudomonas aeruginosa PAO1.

IMP-1 = IMP-1 (Serratia marcescens, UniProt P52699); test: biochemical; type: biochemical; details: CCF2-FA substrate, 2 hours at 25° C; read-out: IMP-1 IC50
Sequence of IMP-1 (P52699 whole entry, looked up, species assumed): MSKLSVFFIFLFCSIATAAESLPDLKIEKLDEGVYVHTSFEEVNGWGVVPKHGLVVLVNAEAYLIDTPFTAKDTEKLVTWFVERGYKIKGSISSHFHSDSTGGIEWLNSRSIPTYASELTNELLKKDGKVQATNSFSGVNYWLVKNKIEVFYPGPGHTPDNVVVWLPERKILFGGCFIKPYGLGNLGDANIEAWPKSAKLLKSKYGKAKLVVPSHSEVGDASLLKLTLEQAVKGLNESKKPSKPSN
Outline: (§2)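 Semi-log dose-response curves, fitted with a 4-parameter model, gave IC50s. The underlying signal was CCF2-FA fluorescence following 2 hours at 25° C with enzyme, substrate and inhibitor combined.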

NDM-1 = NDM-1 (Klebsiella pneumoniae, UniProt C7C422); test: biochemical; type: biochemical; details: CCF2-FA substrate, 2 hours at 25° C; read-out: NDM-1 IC50
Sequence of NDM-1 (C7C422 whole entry, looked up, species assumed): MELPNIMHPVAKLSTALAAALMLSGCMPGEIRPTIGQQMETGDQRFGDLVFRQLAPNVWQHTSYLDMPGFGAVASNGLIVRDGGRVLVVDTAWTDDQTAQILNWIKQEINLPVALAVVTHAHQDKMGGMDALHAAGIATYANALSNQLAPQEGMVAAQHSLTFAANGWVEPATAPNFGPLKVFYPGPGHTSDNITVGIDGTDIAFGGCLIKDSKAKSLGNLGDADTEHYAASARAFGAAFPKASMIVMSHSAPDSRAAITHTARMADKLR
Outline: as §2

[2] = test system: Serratia marcescens expressing IMP-1 (CL5741); type: cell-based; details: with imipenem 1 μg/ml, 95% inhibition of bacterial growth; for Serratia marcescens MITC95: IMP-1 (CL5741)
Outline: (§3)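 Restoration of imipenem susceptibility (1 μg/ml imipenem) was judged by absorbance after 22–24 h at 35° C. Test compound was added to bacteria suspended 1:100 in 1.1× CAMHB from overnight blood-agar cultures.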

[3] = test system: Escherichia coli expressing NDM-1 (CLB30005, CLB30016); type: cell-based; details: with imipenem 1 μg/ml, 95% inhibition of bacterial growth; for Escherichia coli MITC95: NDM-1 (CLB30016)
Outline: as §3

[4] = test system: Klebsiella pneumoniae expressing VIM-1 (IHMA599644); type: cell-based; details: with imipenem 1 μg/ml, 95% inhibition of bacterial growth; for Klebsiella pneumoniae MITC95: VIM-1 (IHMA599644)
Outline: as §3

[5] = test system: P. aeruginosa expressing IMP-1, efflux− (MB9799); test: Efflux: concentration of MBL inhibitor which restores susceptibility to imipenem; type: cell-based, Pseudomonas aeruginosa; details: imipenem at 2 μg/mL, in the presence of a class A, C, D serine β-lactamase inhibitor closely related to relebactam
Description: as §1

VIM-1 = VIM-1 (Pseudomonas aeruginosa (strain ATCC 15692 / DSM 22644 / CIP 104116 / JCM 14847 / LMG 12228 / 1C / PRS 101 / PAO1), UniProt A0A0F7KYQ8); test: biochemical; details: CCF2-FA substrate, 2 hours at 25° C
Outline: as §2

SMILES | P. aeruginosa expressing IMP-1, efflux+ (MB9798) MITC95 [1] | Efflux ratio [1] | IC50 (IMP-1) | IC50 (NDM-1) | Serratia marcescens expressing IMP-1 (CL5741) MITC95 [2] | Escherichia coli expressing NDM-1 (CLB30016) MITC95 [3] | Klebsiella pneumoniae expressing VIM-1 (IHMA599644) MITC95 [4] | P. aeruginosa expressing IMP-1, efflux− (MB9799) MITC95 [5] | IC50 (VIM-1) | Serratia marcescens MITC95 [2] | Escherichia coli MITC95 [3] | Klebsiella pneumoniae MITC95 [4]
NCCS(=O)(=O)c1ccc(-c2cnc(N)c(F)c2)c(-c2nnn[nH]2)c1S(N)(=O)=O.O=C(O)C(F)(F)F [Example 168, 2-((4-(6-amino-5-fluoropyridin-3-yl)-2-sulfamoyl-3-(1H-tetrazol-5-yl)phenyl)sulfonyl)ethanaminium 2,2,2-trifluoroacetate] | 6.25 µM | 4.00 | 2.02 nM | 2.5 nM | 3.125 µM | 1.563 µM | 6.25 µM | 1.563 µM | 0.515 nM | – | – | –
CS(=O)(=O)c1ccc(-c2ccc(C3CCNCC3)cc2)c(-c2nnn[nH]2)c1S(N)(=O)=O [Example 236, 4-(methylsulfonyl)-4′-(piperidin-4-yl)-2-(1H-tetrazol-5-yl)-[1,1′-biphenyl]-3-sulfonamide] | 6.25 µM | 8.00 | 0.103 nM | 2.12 nM | 3.125 µM | 3.125 µM | 3.125 µM | 0.7813 µM | 0.127 nM | – | – | –
Nc1nc2cc(-c3ccc(SC4CNC4)c(S(N)(=O)=O)c3-c3nn[nH]n3)ccc2[nH]1 [Example 1, 3-(2-amino-1H-benzo[d]imidazol-5-yl)-6-(azetidin-3-ylthio)-2-(2H-tetrazol-5-yl)benzenesulfonamide] | 50 µM | 8.00 | 422 nM | 20.8 nM | 6.25 µM | 0.3906 µM | 6.25 µM | 6.25 µM | 141 nM | – | – | –
Nc1ccc2cccc(-c3ccc(S(=O)(=O)C4CNC4)c(S(N)(=O)=O)c3-c3nn[nH]n3)c2n1 [Example 36, 3-(2-aminoquinolin-8-yl)-6-(azetidin-3-ylsulfonyl)-2-(2H-tetrazol-5-yl)benzenesulfonamide] | 0.7813 µM | 1.00 | 0.357 nM | 0.104 nM | 0.7813 µM | 3.125 µM | 1.563 µM | 0.7813 µM | 0.282 nM | – | – | –
NCCS(=O)(=O)c1ccc(-c2cccc3ncccc23)c(-c2nn[nH]n2)c1S(N)(=O)=O [Example 324, 6-((2-aminoethyl)sulfonyl)-3-(quinolin-5-yl)-2-(2H-tetrazol-5-yl) benzenesulfonamide] | 6.25 µM | 8.00 | 0.55 nM | 0.222 nM | – | – | – | 0.7813 µM | 0.139 nM | 1.563 µM | 1.563 µM | 3.125 µM
NS(=O)(=O)c1c(S(=O)(=O)C2CNC2)ccc(-c2ccc3ncnn3c2)c1-c1nnn[nH]1.O=C(O)C(F)(F)F [Example 104, 3-((4-([1,2,4]triazolo[1,5-a]pyridin-6-yl)-2-sulfamoyl-3-(1H-tetrazol-5-yl)phenyl)sulfonyl)azetidin-1-ium 2,2,2-trifluoroacetate] | 12.5 µM | 8.00 | 3.53 nM | 2.09 nM | 6.25 µM | 3.125 µM | 3.125 µM | 1.563 µM | 0.699 nM | – | – | –
NS(=O)(=O)c1c(S(=O)(=O)C2CNC2)ccc(-c2ccc(C3CCNCC3)cc2)c1-c1nn[nH]n1 [Example 6] | 0.7813 µM | 1.00 | 0.212 nM | 0.307 nM | 1.563 µM | 0.7813 µM | 1.563 µM | 0.7813 µM | 0.195 nM | – | – | –
NCCS(=O)(=O)c1ccc(-c2cccc(-c3c[nH]c(N)n3)c2)c(-c2nnn[nH]2)c1S(N)(=O)=O [Example 346, 3′-(2-Amino-1H-imidazol-4-yl)-4-((2-aminoethyl)sulfonyl)-2-(1H-tetrazol-5-yl)-[1,1′-biphenyl]-3-sulfonamide] | 6.25 µM | 8.00 | 1.97 nM | 0.518 nM | – | – | – | 0.7813 µM | 0.931 nM | 1.563 µM | 0.3906 µM | 1.563 µM
CS(=O)(=O)c1ccc(-c2ccc(N)nc2)c(-c2nn[nH]n2)c1S(N)(=O)=O [Example 237, 3-(6-Aminopyridin-3-yl)-6-(methylsulfonyl)-2-(2H-tetrazol-5-yl)benzenesulfonamide] | 25 µM | 15.99 | 0.63 nM | 5.81 nM | 1.563 µM | 0.3906 µM | 6.25 µM | 1.563 µM | 0.754 nM | – | – | –
Cc1cc(-c2ccc(S(=O)(=O)CCN)c(S(N)(=O)=O)c2-c2nnn[nH]2)cnc1N.O=C(O)C(F)(F)F [Example 172, 2-((4-(6-amino-5-methylpyridin-3-yl)-2-sulfamoyl-3-(1H-tetrazol-5-yl)phenyl)sulfonyl)ethanaminium 2,2,2-trifluoroacetate] | 6.25 µM | 3.51 | 4.9 nM | 2.98 nM | 1.281 µM | 0.25 µM | 3.125 µM | 1.781 µM | 0.193 nM | – | – | –
NCCS(=O)(=O)c1ccc(-c2ccc3[nH]nc(C(F)(F)F)c3c2)c(-c2nnn[nH]2)c1S(N)(=O)=O.O=C(O)C(F)(F)F [Example 163, 2-((2-sulfamoyl-3-(1H-tetrazol-5-yl)-4-(3-(trifluoromethyl)-1H-indazol-5-yl)phenyl)sulfonyl)ethanaminium 2,2,2-trifluoroacetate] | 100 µM | 127.99 | 1.22 nM | 0.98 nM | 3.125 µM | 1.563 µM | 3.125 µM | 0.7813 µM | 0.12 nM | – | – | –
